Data as given in PMC4721142, “Randomized controlled studies on the efficacy of antiarthritic agents in inhibiting cartilage degeneration and pain associated with progression of osteoarthritis in the rat” (Arthritis Research & Therapy, 2016).
Like-named read-outs stand apart in the source and are kept apart here.

Legend:
IKK-1 = details: reported, cited from earlier work
NF-κB = assay: TNF-α-stimulated NF-κB dual luciferase reporter assay in HeLa cells; assay type: cell-based
Procedure: NF-κB activity was assessed using a previously described dual plasmid reporter system. HeLa cells were transfected with NF-κB luciferase (Stratagene Products Division, Agilent Technologies, La Jolla, CA, USA) and pRLuc-N3 (PerkinElmer, Waltham, MA, USA) at an 8:1 ratio, respectively, in triplicate. […] NF-κB activity was measured 5 h later with a Dual-Glo Luciferase Assay (Promega, Madison, WI, USA) and an Omni plate reader (BMG Labtech, Cary, NC, USA). The ratio of firefly luciferase luminescence (NF-κB reporter) to Renilla luciferase luminescence (control) was normalized for the number of viable transfected cells. Data are reported as a ratio of activity of viable treated cells over the activity of cells not exposed to TNF-α or drug (fold stimulation above basal untreated levels of activity). The viability of HeLa cells with and without drug was also measured using a CellTiter-Glo luminescent viability assay (Promega). […]
NF-κB activity was assessed in HeLa cells that were transiently transfected with two reporter constructs as described in the manuscript. Agents were tested for their ability to block TNF- […]
Expression of the luciferase from the Renilla construct was used as a measure of viability, which was confirmed with a cytotoxicity assay (see later section).

[1] = test system: Normal human articular chondrocytes; assay: Cytotoxicity to chondrogenic pellets (CellTiter-Blue)
Procedure: (§1) Differentiated chondrogenic pellets were used both to test the ability of drugs to block MMP-13 activity and to test for drug toxicity. […] Supernatants were collected and analyzed for MMP-13 using an enzyme-linked immunosorbent assay (GE Healthcare Life Sciences, Little Chalfont, UK). Cytotoxicity to pellets was assessed using CellTiter-Blue (Promega).

HeLa cells = assay: HeLa cell viability (CellTiter-Glo)
Procedure: NF-κB activity was assessed using a previously described dual plasmid reporter system. HeLa cells were transfected with NF-κB luciferase (Stratagene Products Division, Agilent Technologies, La Jolla, CA, USA) and pRLuc-N3 (PerkinElmer, Waltham, MA, USA) at an 8:1 ratio, respectively, in triplicate. […] NF-κB activity was measured 5 h later with a Dual-Glo Luciferase Assay (Promega, Madison, WI, USA) and an Omni plate reader (BMG Labtech, Cary, NC, USA). The ratio of firefly luciferase luminescence (NF-κB reporter) to Renilla luciferase luminescence (control) was normalized for the number of viable transfected cells. Data are reported as a ratio of activity of viable treated cells over the activity of cells not exposed to TNF-α or drug (fold stimulation above basal untreated levels of activity). The viability of HeLa cells with and without drug was also measured using a CellTiter-Glo luminescent viability assay (Promega).
In Vitro Hela Cell Drug Toxicity Testing
Potential drug toxicity was measured using a CTG assay and HeLa cells (Promega). Drugs not tested in
this assay were tested in either of the in vitro toxicity assays already presented (synovial or chondrocyte
Table 3- Drug toxicity measured using a CTG assay and HeLa cells.

[2] = published half-life; cited from earlier work
IKK-2 = details: reported; cited from earlier work
[3] = Comparison of in vitro screens: overlapping effective and nontoxic range; details: for Overlapping effective and nontoxic range: inhibits with minimal or no toxicity to synovium or cartilage, overlapping range if effective in more than one assay;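 as to all read-outs here: compares non-toxic ranges in synovial cells and chondrocytes with effective ranges against NFkB, MMP-13 and osteoclasts, giving their overlap as the predicted efficacy range in uM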
SW982 [4] = assay: Synovial toxicity (CellTiter-Glo), with or without TNF-α
Procedure: (§2) Viability was measured with the CellTiter-Glo luminescent viability assay (Promega). […] To more accurately predict the effects of the drugs on osteoarthritic synovium, cells were tested with or without TNF-α (20 ng/ml; BioSource).
(§3) In Vitro Toxicity Testing with a Synovial Cell Line
(§4) Compounds were tested for synovial toxicity using SW982 cells alone or in the presence of TNF as

RAW 264.7 cells = assay: RANKL-mediated osteoclastogenesis / matrix resorption (Osteologic) assay; assay type: cell-based, murine
In short: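 Agents were tested during or after differentiation. Wells were bleached and resorption pits were quantified by image analysis versus RANKL-only controls, using an unpaired t-test.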

[5] = test system: Normal human articular chondrocytes
Procedure: as §1

MMP-13 = MMP-13 ELISA on supernatants of TNF-α-treated chondrogenic pellets; assay type: cell-based, human
SW982 [6] = test system: SW982
Procedure: as §2, §3, §4

IκBα phosphorylation = test system: IκBα phosphorylation; set-up: method as in PMID 18849610; details: reported; read-out: IC50 for block of IκBα phosphorylation; cited from earlier work
TNF-α in human monocytes = test system: TNF-α in human monocytes; set-up: method as in PMID 15316093; details: reported; read-out: IC50, inhibits TNF-α in human monocytes; cited from earlier work
[7] = test system: IL-8 and IL-6 in synovial fibroblasts; set-up: method as in PMID 15316093; details: reported; read-out: IC50, blocks IL-8 and IL-6 in synovial fibroblasts; cited from earlier work
[8] = test system: rat inflammatory arthritis model; set-up: method as in per Calbiochem; details: 30 mg/kg; ref per Calbiochem; cited from earlier work

Structure (SMILES)	Effective against NF κβ (p<0.05) (NF-κB)	Inhibition of NF-κB at the concentrations tested (NF-κB)	Non-toxic range (Chondrocyte) [1] [µM]	Non-toxic concentrations (HeLa cells)	IC50 (IKK-2) [nM]	Non-toxic & predicted range of efficacy [3] [µM]	Overlapping effective and nontoxic range [3]	Non-toxic range (Synovial) (SW982 [4]) [µM]	also measured
Cc1ccc2nc(NCCN)c3ncc(C)n3c2c1 [BMS-345541]	1 to 15.6 µM	failed to inhibit	0.24 to 15.6	0.24 to 15.6 µM	300	0.24 to 7.8	0.244 µM	0.24 to 7.8	IC50 (IKK-1): 4000 nM; t 1/2 [2]: 2.2 h
[C-]#[O+].[C-]#[O+].[C-]#[O+].[C-]#[O+].[C-]#[O+].[C-]#[O+].[Cl][Ru][Cl].[Cl][Ru][Cl] [CORM-2, tricarbonyldichlororuthenium(II) dimer]	–	–	–	–	–	20 to 40	20–40+ μM	–	Lowest inhibitory concentration, matrix resorption (RAW 264.7 cells): 20 µM; Non-toxic range (Chondrocyte) [5]: 0.625 to 40 M; Effective range against MMP-13 (MMP-13): 10 – 40 M; Non-toxic range (Synovial) (SW982 [6]): 2.5 to 40 M
O=C(Nc1cc(C(F)(F)F)cc(C(F)(F)F)c1)c1cc(Cl)ccc1O [IKK inhibitor V, N-(3,5-bis-trifluoromethyl-phenyl)-5-chloro-2-hydroxy-benzamide]	Only at toxic	–	–	None	–	1.625 to 26	1.625 to 26 µM	–	Non-toxic range (Chondrocyte) ([1]; male, human, 24 h): 0.4 to 13 µM; Toxic concentrations (p<0.05) (HeLa cells; human): 0.101 to 26 M; IC50 (IκBα phosphorylation): 250 nM; Non-toxic range (Synovial) (SW982 [4]; human): 0.1 to 0.2 µM
N#Cc1c(C2CCNCC2)cc(-c2c(O)cccc2OCC2CC2)nc1N [IKK inhibitor VIII, 2-amino-6-(2-(cyclopropylmethoxy)-6-hydroxyphenyl)-4-(4-piperidinyl)-3-pyridinecarbonitrile]	–	–	0.25 to 16	–	8.5	2 to 4	4 (toxicity to synovial cells) μM	0.3 to 2	IC50 (IKK-1; ref per Calbiochem): 250 nM; minimal effective concentration (RAW 264.7 cells; Mus musculus, RAW264.7, 168 h, read-out: Lowest inhibitory concentration, matrix resorption): 0.5 µM
NC(=O)Nc1sc(-c2ccc(F)cc2)cc1C(N)=O [IKK-2 inhibitor IV, [5-(p-Fluorophenyl)-2-ureido]thiophene-3-carboxamide]	Not consistently	[…]	–	[…]	[…]	–	–	[…]	IC50 (TNF-α in human monocytes): 150 to 2500 nM; Toxic concentrations (p<0.05) (HeLa cells): […]; IC50 [7]: 100 nM; Reduced paw edema [8]: ~100%
